# Data published in PubChem BioAssay (NCI).
#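 All cell lines were grown in 96-well plates and treated with compound for 48 hours. TGI denotes the concentration required for complete inhibition of growth.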
# Experiments:
# Assay in all cases: inhibition of tumour cell growth, NCI panel, 48 h
# U251 CNS = test system: U251 CNS
# SF-295 CNS = test system: SF-295 CNS
# NCI-H522 lung = test system: NCI-H522 lung
# RXF 393 renal = test system: RXF 393 renal
# K-562 leukemia = test system: K-562 leukemia
# HCT-116 colon = test system: HCT-116 colon
# CAKI-1 renal = test system: CAKI-1 renal
# IGROV1 ovarian = test system: IGROV1 ovarian
# MDA-MB-231 breast = test system: MDA-MB-231 breast
# SF-539 CNS = test system: SF-539 CNS
# COLO 205 colon = test system: COLO 205 colon
# MDA-MB-435 = test system: MDA-MB-435
# EKVX NSCLC = test system: EKVX NSCLC
# PC-3 prostate = test system: PC-3 prostate
# HL-60(TB) leukemia = test system: HL-60(TB) leukemia
# UACC-257 melanoma = test system: UACC-257 melanoma
# MOLT-4 leukemia = test system: MOLT-4 leukemia
# DU-145 prostate = test system: DU-145 prostate
# 786-0 renal = test system: 786-0 renal
# SNB-19 CNS = test system: SNB-19 CNS
# A549 NSCLC = test system: A549 NSCLC
# SNB-75 CNS = test system: SNB-75 CNS
# A498 renal = test system: A498 renal
# OVCAR-8 ovarian = test system: OVCAR-8 ovarian
# SK-OV-3 ovarian = test system: SK-OV-3 ovarian
# SK-MEL-5 melanoma = test system: SK-MEL-5 melanoma
# CCRF-CEM leukemia = test system: CCRF-CEM leukemia
# MALME-3M melanoma = test system: MALME-3M melanoma
# HOP-62 NSCLC = test system: HOP-62 NSCLC
# SK-MEL-2 melanoma = test system: SK-MEL-2 melanoma
# OVCAR-3 ovarian = test system: OVCAR-3 ovarian
# UO-31 renal = test system: UO-31 renal
# HT29 colon = test system: HT29 colon
# LOX IMVI melanoma = test system: LOX IMVI melanoma
# HCT-15 colon = test system: HCT-15 colon
# TK-10 renal = test system: TK-10 renal
# KM12 colon = test system: KM12 colon
# SK-MEL-28 melanoma = test system: SK-MEL-28 melanoma
# RPMI-8226 leukemia = test system: RPMI-8226 leukemia
# NCI-H23 lung = test system: NCI-H23 lung
# T-47D breast = test system: T-47D breast
# NCI/ADR-RES ovarian = test system: NCI/ADR-RES ovarian
# ACHN renal = test system: ACHN renal
# SN12C renal = test system: SN12C renal
# MDA-N = test system: MDA-N
# UACC-62 melanoma = test system: UACC-62 melanoma
# NCI-H226 lung = test system: NCI-H226 lung
# SW-620 colon = test system: SW-620 colon
# HOP-92 NSCLC = test system: HOP-92 NSCLC
# OVCAR-4 ovarian = test system: OVCAR-4 ovarian
# HCC-2998 colon = test system: HCC-2998 colon
# MCF7 breast = test system: MCF7 breast
# M14 melanoma = test system: M14 melanoma
# HS 578T breast = test system: HS 578T breast
# SR leukemia = test system: SR leukemia
# OVCAR-5 ovarian = test system: OVCAR-5 ovarian
# SF-268 CNS = test system: SF-268 CNS
# NCI-H460 lung = test system: NCI-H460 lung
compound,measurement,setting,value
O=C(Nc1c[nH]c(=O)[nH]c1=O)C(Cl)Cl,TGI,U251 CNS,> 100 µM
same,TGI,SF-295 CNS,> 100 µM
same,TGI,NCI-H522 lung,> 100 µM
same,TGI,RXF 393 renal,> 100 µM
same,TGI,K-562 leukemia,> 100 µM
same,TGI,HCT-116 colon,> 100 µM
same,TGI,CAKI-1 renal,> 100 µM
same,TGI,IGROV1 ovarian,> 100 µM
same,TGI,MDA-MB-231 breast,> 100 µM
same,TGI,SF-539 CNS,> 100 µM
same,TGI,COLO 205 colon,> 100 µM
same,TGI,MDA-MB-435,> 100 µM
same,TGI,EKVX NSCLC,> 100 µM
same,TGI,PC-3 prostate,> 100 µM
same,TGI,HL-60(TB) leukemia,> 100 µM
same,TGI,UACC-257 melanoma,> 100 µM
same,TGI,MOLT-4 leukemia,> 100 µM
same,TGI,DU-145 prostate,> 100 µM
same,TGI,786-0 renal,> 100 µM
same,TGI,SNB-19 CNS,> 100 µM
same,TGI,A549 NSCLC,> 100 µM
same,TGI,SNB-75 CNS,> 100 µM
same,TGI,A498 renal,> 100 µM
same,TGI,OVCAR-8 ovarian,> 100 µM
same,TGI,SK-OV-3 ovarian,> 100 µM
same,TGI,SK-MEL-5 melanoma,> 100 µM
same,TGI,CCRF-CEM leukemia,> 100 µM
same,TGI,MALME-3M melanoma,> 100 µM
same,TGI,HOP-62 NSCLC,> 100 µM
same,TGI,SK-MEL-2 melanoma,> 100 µM
same,TGI,OVCAR-3 ovarian,> 100 µM
same,TGI,UO-31 renal,> 100 µM
same,TGI,HT29 colon,> 100 µM
same,TGI,LOX IMVI melanoma,> 100 µM
same,TGI,HCT-15 colon,> 100 µM
same,TGI,TK-10 renal,> 100 µM
same,TGI,KM12 colon,> 100 µM
same,TGI,SK-MEL-28 melanoma,> 100 µM
same,TGI,RPMI-8226 leukemia,> 100 µM
same,TGI,NCI-H23 lung,> 100 µM
same,TGI,T-47D breast,> 100 µM
same,TGI,NCI/ADR-RES ovarian,> 100 µM
same,TGI,ACHN renal,> 100 µM
same,TGI,SN12C renal,> 100 µM
same,TGI,MDA-N,> 100 µM
same,TGI,UACC-62 melanoma,> 100 µM
same,TGI,NCI-H226 lung,> 100 µM
same,TGI,SW-620 colon,> 100 µM
same,TGI,HOP-92 NSCLC,> 100 µM
same,TGI,OVCAR-4 ovarian,> 100 µM
same,TGI,HCC-2998 colon,> 100 µM
same,TGI,MCF7 breast,> 100 µM
same,TGI,M14 melanoma,> 100 µM
COC(=O)C(CCc1ccccc1I)C1=CCC2(CC1)OCCO2 (centres undefined),TGI,U251 CNS,> 100 µM
same,TGI,SF-295 CNS,> 100 µM
same,TGI,NCI-H522 lung,68.8 µM
same,TGI,HS 578T breast,> 100 µM
same,TGI,RXF 393 renal,67.2 µM
same,TGI,K-562 leukemia,> 100 µM
same,TGI,CAKI-1 renal,> 100 µM
same,TGI,IGROV1 ovarian,> 100 µM
same,TGI,MDA-MB-231 breast,> 100 µM
same,TGI,SF-539 CNS,> 100 µM
same,TGI,COLO 205 colon,> 100 µM
same,TGI,MDA-MB-435,87.7 µM
same,TGI,EKVX NSCLC,> 100 µM
same,TGI,PC-3 prostate,> 100 µM
same,TGI,HL-60(TB) leukemia,17.4 µM
same,TGI,UACC-257 melanoma,> 100 µM
same,TGI,MOLT-4 leukemia,> 100 µM
same,TGI,DU-145 prostate,> 100 µM
same,TGI,SR leukemia,> 100 µM
same,TGI,786-0 renal,> 100 µM
same,TGI,SNB-19 CNS,> 100 µM
same,TGI,A549 NSCLC,> 100 µM
same,TGI,SNB-75 CNS,> 100 µM
same,TGI,A498 renal,> 100 µM
same,TGI,OVCAR-8 ovarian,> 100 µM
same,TGI,SK-OV-3 ovarian,> 100 µM
same,TGI,SK-MEL-5 melanoma,40 µM
same,TGI,CCRF-CEM leukemia,33.7 µM
same,TGI,MALME-3M melanoma,> 100 µM
same,TGI,OVCAR-5 ovarian,95.8 µM
same,TGI,HOP-62 NSCLC,> 100 µM
same,TGI,SK-MEL-2 melanoma,> 100 µM
same,TGI,OVCAR-3 ovarian,> 100 µM
same,TGI,SF-268 CNS,> 100 µM
same,TGI,UO-31 renal,76.2 µM
same,TGI,HT29 colon,> 100 µM
same,TGI,LOX IMVI melanoma,> 100 µM
same,TGI,HCT-15 colon,> 100 µM
same,TGI,TK-10 renal,> 100 µM
same,TGI,KM12 colon,> 100 µM
same,TGI,SK-MEL-28 melanoma,> 100 µM
same,TGI,RPMI-8226 leukemia,> 100 µM
same,TGI,NCI-H460 lung,> 100 µM
same,TGI,NCI-H23 lung,> 100 µM
same,TGI,T-47D breast,71.3 µM
same,TGI,NCI/ADR-RES ovarian,> 100 µM
same,TGI,ACHN renal,> 100 µM
same,TGI,MDA-N,94.3 µM
same,TGI,UACC-62 melanoma,> 100 µM
same,TGI,NCI-H226 lung,> 100 µM
same,TGI,SW-620 colon,> 100 µM
same,TGI,HOP-92 NSCLC,> 100 µM
same,TGI,OVCAR-4 ovarian,> 100 µM
same,TGI,HCC-2998 colon,> 100 µM
same,TGI,MCF7 breast,> 100 µM
same,TGI,M14 melanoma,> 100 µM
